Patent US20260232666A1, “COMPOSITIONS AND METHODS FOR INHIBITION OF RAS” (TheRas, Inc., priority 2023, published 2026)

What follows are compounds tested on pERK in NCI-H358 cells (assay: Cell-based pERK HTRF assay (pERK inhibition in H358 cells)). Conditions: Homo sapiens, NCI-H358, 0.5 h, 30 min incubation.
Procedure: Biological Example 3: Cell-Based pERK HTRF Assay
pERK assays (Perkin Elmer) were used to determine the effectiveness of compounds of the present disclosure in disrupting KRAS G12C protein/effector signaling in cells.
On Day 1, cells (NCI-H358) were seeded into 96-well plates at 4×10^4 cells/well in complete growth media (RPMI, 10% FBS).
On Day 2, cells were treated with compounds at 0.25% DMSO. The source plate was created with compounds diluted in media at 5-fold the final assay concentration. The compounds were run in a 9-point concentration curve starting at 75 μM, with a 3-fold dilution between concentrations. 20 μL was transferred onto the cell plates (final volume in wells was 100 μL). Plates were harvested after 30 min incubation by aspirating media and adding kit-supplied 1× supplemented lysis buffer to all wells (75 μl per well). Plates were then placed on a plate shaker and incubated at 850 rpm for an additional 30 min.
Antibody mixture solution was prepared by diluting aliquoted d2 and Eu Cryptate antibodies 1:20 in kit supplied detection buffer, then mixed the diluted antibodies solutions (1:1 v:v). 4 μL of this solution was then added to a 384-well detection plate (Perkin Elmer; 6008230).
Samples were homogenized by pipetting up and down and then transferred (16 μL of cell lysates) from the 96-well cell culture plate to two wells of the HTRF 384-well detection plate containing the antibody solution. Plates were centrifuged (524 g for […]) and allowed to incubate between 4 and 24 h at room temperature. Maximum signal is reached after 4 h incubation time and remains stable over a period of 24 hours. Therefore, readings can be made between 4 and 24 h of incubation. Plates were centrifuged again (524 g for 1 min), and analyzed on the En Vision plate reader using the following settings: Excitation 320 nm, Bandwidth 75 nm; Emission 615 nm, Bandwidth 85 nm; Gain 100%; Flashes 100; Lag 60 μs.
The percent of modification of GppNHp, GTP, or GDP loaded KRAS G12C by MALDI-TOF MS, biochemical Raf1 RBD-KRAS G12C-GppNHp disruption assay IC50, and pERK inhibition IC50 of selected compounds described herein are shown in Table 4. For percent of modification at 15 minutes (MALDI-TOF MS) of GppNHp, GTP, or GDP loaded KRAS G12C: A: percent of modification ≥70%; B: 50≤percent of modification <70%; C: 10%≤percent of modification <50%; D: percent of modification <10%. […] For pERK inhibition in H358 cell assay: A: IC50≤0.1 μM; B: 0.1 μM<IC50≤1 μM; C: IC50>1 μM. Blanks in the table represent that compound was not tested in the indicated assay.

Structure (SMILES)	IC50
C=CC(=O)N1CC[C@@H](N(C)c2nc(O[C@@H](C)[C@@H]3C(=C(F)F)CCN3C)nc3c(F)c(-c4ccc(F)c5sc(N)c(C#N)c45)c(Cl)cc23)[C@H]1C [Compound 201]	100 to 1000 nM
C=CC(=O)N1CC[C@@H](N(C)c2nc(OC[C@@H]3CC(=C(F)F)CN3C)nc3c(F)c(-c4ccc(F)c5sc(N)c(C#N)c45)c(Cl)cc23)[C@H]1C [Compound 202]	100 to 1000 nM
C=CC(=O)N1CC[C@@H](N(C)c2nc(O[C@@H](C)[C@@H]3C(=C)CCN3C)nc3c(F)c(-c4ccc(F)c5sc(N)c(C#N)c45)c(C(F)(F)F)cc23)[C@H]1C [Compound 203]	< 100 nM
C=CC(=O)N1CC[C@@H](N(C)c2nc(O[C@@H](C)[C@@H]3CC(=C(F)F)CN3C)nc3c(F)c(-c4ccc(F)c5sc(N)c(C#N)c45)c(C(F)(F)F)cc23)[C@H]1C [Compound 204]	100 to 1000 nM

These compounds were tested against T1, GTP-loaded KRAS4b (amino acids 1-169) G12C/C118S protein (Homo sapiens, UniProt P01116, C118S/G12C) (assay: Covalent cysteine 12 modification by MALDI-TOF MS, GTP-loaded KRAS G12C). Conditions: 15 minutes reaction time point.
T1 construct: KRAS4b (amino acids 1-169) G12C/C118S protein; made in house
Assay type: binding
Procedure: (§1) Biological Example 1: Covalent Cysteine 12 Modification Analysis Using Matrix Assisted Laser Desorption Ionization-Time of Flight Mass Spectrometry (MALDI-TOF MS)
(§2) MALDI-TOF MS analysis was performed using 1 μM protein (KRAS G12C), and 1:2.5 protein to compound ratio.
(§3) Reaction: 1 μM of GppNHp, GTP, or GDP-loaded KRAS4b (amino acids 1-169) G12C/C118S protein (produced in-house by Protein Expression Laboratory, FNLCR/Leidos Biomed) in 20 mM 4-(2-hydroxyethyl)-1-piperazineethanesulfonic acid (HEPES) buffer containing 150 mM NaCl, 1 mM MgCl2, pH 7.3 was prepared freshly before assay. Twelve-μL aliquots of protein were dispensed onto low volume 384-well plate, then 30 nL of tested compounds from 1 mM DMSO stocks were added to appropriate wells using ECHO 555 acoustic liquid handler (Labcyte Inc.). For each reaction/assay, three blanks were prepared by mixing 12 μL of protein solution with 30 nL DMSO. The contents of the wells were carefully mixed by aspiration, and then each plate was sealed with an adhesive cover, centrifuged at 2000 g for 1 minute, and kept in the dark at room temperature until 5 min, 15 min, 30 min, 2 h, or 6 h collections.
(§4) Target pretreatment: Before each assay MALDI target (Bruker MPT 384 ground steel BC) was pre-treated by pipetting on each spot 0.75 μL of saturated sinapinic acid in acetonitrile (ACN).
(§5) Sample preparation: At collection time point, 2 μL of reaction mixtures were pipetted out into 15 μL MALDI matrix solution (saturated solution of sinapinic acid in 1:1 ACN:water solution containing 0.75% trifluoroacetic acid (TFA)) deposited on 384 well polypropylene plate. Resulting solution was mixed by aspiration, centrifuged at 2000 g for 1 minute, then 1.5 μL aliquots were dispensed on pre-treated MALDI target using Beckman Coulter Biomek FXP 96/384-Span-8 Laboratory Automation Workstation. Finally, the MALDI target was dried under mild vacuum to produce spots with fine crystalline structure.
(§6) Measurements: MALDI-TOF measurements were performed on a Bruker Daltonics rapiflex Tissuetyper TOF-TOF mass spectrometer using linear mode and mass range from 18.6 to 21.6 kDa. Detector gain was set to 3.3×(483 V), sample rate to 5 GS/s, real time smoothing to medium (175 MHz), laser smart beam pattern was set to: “MS Thin Layer M5”, and the laser frequency was 10000 Hz. Spectra were automatically collected using custom AutoXecute method. Laser power was auto adjusted using fuzzy control. The peak selection range was set to be between 19000 and 21500 Da. Peak evaluation uses half width parameter set to be smaller than 40 Da for processed spectrograms (centroid peak detection; smoothed by SavitzkyGolay algorithm using 7 m/z width and 2 cycles; baseline was subtracted using median algorithm with flatness 1 and median level 0.01). Fuzzy control used Proteins/Oligonucleotides protocol with minimum half width 1/10 times above threshold. Up to 40000 satisfactory shots were collected in 10000 shot steps. Dynamic termination was implemented to finish data collection when peak signal/noise ratio was reaching value of 50.
(§7) Spectra processing: Spectra were smoothed by SavitzkyGolay algorithm using 7 m/z width and three cycles. Centroid peak detection algorithm was used with signal to noise threshold set to 6, relative intensity threshold 4%, peak width 10 m/z and median baseline subtraction using flatness of 1 and median level of 0.01. Peak intensity and area under the peak were evaluated and recorded for all peaks between 19,300 Da and 21,550 Da.
(§8) Calculation of percent modification: Percent modification was calculated as a ratio of peak height for protein modified by compound to sum of peak height of remaining protein plus peak height for protein modified by compound. If multiple modifications were observed each was calculated as a ratio of peak height for given modification versus sum of peak heights for all observed protein species. Data reported in Table 4 are from 15 minutes reaction time point. […]

Structure (SMILES)	GTP-KRAS G12C percent of modification
C=CC(=O)N1CC[C@@H](N(C)c2nc(O[C@@H](C)[C@@H]3C(=C(F)F)CCN3C)nc3c(F)c(-c4ccc(F)c5sc(N)c(C#N)c45)c(Cl)cc23)[C@H]1C [Compound 201]	C (10%≤percent of modification <50%)
C=CC(=O)N1CC[C@@H](N(C)c2nc(OC[C@@H]3CC(=C(F)F)CN3C)nc3c(F)c(-c4ccc(F)c5sc(N)c(C#N)c45)c(Cl)cc23)[C@H]1C [Compound 202]	C (10%≤percent of modification <50%)
C=CC(=O)N1CC[C@@H](N(C)c2nc(O[C@@H](C)[C@@H]3C(=C)CCN3C)nc3c(F)c(-c4ccc(F)c5sc(N)c(C#N)c45)c(C(F)(F)F)cc23)[C@H]1C [Compound 203]	A (percent of modification ≥70%)
C=CC(=O)N1CC[C@@H](N(C)c2nc(O[C@@H](C)[C@@H]3CC(=C(F)F)CN3C)nc3c(F)c(-c4ccc(F)c5sc(N)c(C#N)c45)c(C(F)(F)F)cc23)[C@H]1C [Compound 204]	C (10%≤percent of modification <50%)

What follows are compounds tested against T2, GDP-loaded KRAS4b (amino acids 1-169) G12C/C118S protein (Homo sapiens, UniProt P01116, C118S/G12C) (assay: Covalent cysteine 12 modification by MALDI-TOF MS, GDP-loaded KRAS G12C). Conditions: 15 minutes reaction time point.
T2 construct: KRAS4b (amino acids 1-169) G12C/C118S protein; made in house
Assay type: binding
Procedure: as §1, §2, §3, §4, §5, §6, §7, §8

Structure (SMILES)	GDP-KRAS G12C percent of modification
C=CC(=O)N1CC[C@@H](N(C)c2nc(O[C@@H](C)[C@@H]3C(=C(F)F)CCN3C)nc3c(F)c(-c4ccc(F)c5sc(N)c(C#N)c45)c(Cl)cc23)[C@H]1C [Compound 201]	B (50≤percent of modification <70%)
C=CC(=O)N1CC[C@@H](N(C)c2nc(OC[C@@H]3CC(=C(F)F)CN3C)nc3c(F)c(-c4ccc(F)c5sc(N)c(C#N)c45)c(Cl)cc23)[C@H]1C [Compound 202]	B (50≤percent of modification <70%)
C=CC(=O)N1CC[C@@H](N(C)c2nc(O[C@@H](C)[C@@H]3C(=C)CCN3C)nc3c(F)c(-c4ccc(F)c5sc(N)c(C#N)c45)c(C(F)(F)F)cc23)[C@H]1C [Compound 203]	A (percent of modification ≥70%)
C=CC(=O)N1CC[C@@H](N(C)c2nc(O[C@@H](C)[C@@H]3CC(=C(F)F)CN3C)nc3c(F)c(-c4ccc(F)c5sc(N)c(C#N)c45)c(C(F)(F)F)cc23)[C@H]1C [Compound 204]	C (10%≤percent of modification <50%)

What follows are compounds tested against T3, GppNHp-loaded KRAS4b (amino acids 1-169) G12C/C118S protein (Homo sapiens, UniProt P01116, C118S/G12C) (assay: Covalent cysteine 12 modification by MALDI-TOF MS, GppNHp-loaded KRAS G12C). Conditions: 15 minutes reaction time point.
T3 construct: KRAS4b (amino acids 1-169) G12C/C118S protein; made in house
Assay type: binding
Procedure: as §1, §2, §3, §4, §5, §6, §7, §8

Structure (SMILES)	GppNHp-KRAS G12C percent of modification
C=CC(=O)N1CC[C@@H](N(C)c2nc(O[C@@H](C)[C@@H]3C(=C(F)F)CCN3C)nc3c(F)c(-c4ccc(F)c5sc(N)c(C#N)c45)c(Cl)cc23)[C@H]1C [Compound 201]	B (50≤percent of modification <70%)
C=CC(=O)N1CC[C@@H](N(C)c2nc(OC[C@@H]3CC(=C(F)F)CN3C)nc3c(F)c(-c4ccc(F)c5sc(N)c(C#N)c45)c(Cl)cc23)[C@H]1C [Compound 202]	B (50≤percent of modification <70%)
C=CC(=O)N1CC[C@@H](N(C)c2nc(O[C@@H](C)[C@@H]3C(=C)CCN3C)nc3c(F)c(-c4ccc(F)c5sc(N)c(C#N)c45)c(C(F)(F)F)cc23)[C@H]1C [Compound 203]	A (percent of modification ≥70%)
C=CC(=O)N1CC[C@@H](N(C)c2nc(O[C@@H](C)[C@@H]3CC(=C(F)F)CN3C)nc3c(F)c(-c4ccc(F)c5sc(N)c(C#N)c45)c(C(F)(F)F)cc23)[C@H]1C [Compound 204]	C (10%≤percent of modification <50%)
